Measured values published in paper PMC8080530, “Glucocorticoid receptor Thr524 phosphorylation by MINK1 induces interactions with 14-3-3 protein regulators” (The Journal of Biological Chemistry, 2021).
Like-named read-outs stand apart in the source and are kept apart here. Non-standard residues stand in square brackets, D forms with d. Residues, ends and D or L forms follow the SMILES beside them. pT = C[C@@H](OP(=O)(O)O)[C@H](N)C(=O)O; pS = N[C@@H](COP(=O)(O)O)C(=O)O

Molecular target: T1, 14-3-3ζ (Homo sapiens, UniProt P63104)
T1 construct: Full-length expression and purification of 14-3-3; made in house; host or cells: E. coli BL21 (DE3)STAR
T1 sequence (P63104 1-245): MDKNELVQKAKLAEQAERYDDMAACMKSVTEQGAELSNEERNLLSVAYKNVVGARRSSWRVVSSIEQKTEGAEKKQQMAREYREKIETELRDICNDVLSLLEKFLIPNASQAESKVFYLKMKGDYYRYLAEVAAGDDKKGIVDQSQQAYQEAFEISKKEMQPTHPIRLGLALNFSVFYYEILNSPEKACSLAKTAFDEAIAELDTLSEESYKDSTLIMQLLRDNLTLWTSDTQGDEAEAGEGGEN
Assay: FP assay with GR phosphorylated peptides and 14-3-3ζ
Type: binding
Description: After 30-min incubation at RT, the plates were read on a plate reader PHERAstar (BMG LABTECH GmbH) for FP signal using […] and standard excitation (485 nm) and emission (520 nm). Measurements were performed as triplicates. Binding data were fit to a standard Hill equation using the software Genedata Screener. The figures were made using the software GraphPad Prism 8. FP data were expressed as millipolarization (mP) units, and the dynamic range (ΔmP) was the difference of the signals from the bound peptide and free peptide. Errors are the standard error of the fit.

[1] = read-out: PKd with 14-3-3ζ (converted)

## CC[C@H](C)[C@H](NC(=O)[C@@H](NC(=O)[C@@H](N)CCCCN)[C@@H](C)O)C(=O)N[C@H](C(=O)N1CCC[C@H]1C(=O)N[C@@H](C)C(=O)N[C@H](C(=O)N[C@@H](CC(C)C)C(=O)N1CCC[C@H]1C(=O)N[C@@H](CCC(N)=O)C(=O)N[C@@H](CC(C)C)C(=O)N[C@H](C(=O)N1CCC[C@H]1C(=O)NCC(=O)NCC(=O)NCC(=O)NCC(=O)NCC(=O)N[C@@H](CCCNC(=N)N)C(=O)N[C@@H](CO)C(=O)N[C@@H](Cc1ccc(O)cc1)C(=O)N[C@@H](CCCNC(=N)N)C(=O)N[C@@H](CCC(N)=O)C(=O)N[C@@H](CO)C(=O)N[C@@H](COP(=O)(O)O)C(=O)N[C@@H](C)C(=O)N[C@@H](CC(N)=O)C(=O)N[C@@H](CC(C)C)C(=O)N[C@@H](CC(C)C)C(=O)N[C@@H](C)C(=O)N[C@@H](Cc1ccccc1)C(=O)O)[C@@H](C)O)[C@@H](C)OP(=O)(O)O)C(C)C [GR_C622A] (H-KTIVPA[pT]LPQLTPGGGGGRSYRQS[pS]ANLLAF-OH)
[1]
  Kd: 63.1 nM

## CC[C@H](C)[C@H](NC(=O)[C@@H](NC(=O)[C@@H](N)CCCCN)[C@@H](C)O)C(=O)N[C@H](C(=O)N1CCC[C@H]1C(=O)N[C@@H](C)C(=O)N[C@H](C(=O)N[C@@H](CC(C)C)C(=O)N1CCC[C@H]1C(=O)N[C@@H](CCC(N)=O)C(=O)N[C@@H](CC(C)C)C(=O)N[C@H](C(=O)N1CCC[C@H]1C(=O)NCC(=O)NCC(=O)NCC(=O)NCC(=O)NCC(=O)N[C@@H](CCCNC(=N)N)C(=O)N[C@@H](CO)C(=O)N[C@@H](Cc1ccc(O)cc1)C(=O)N[C@@H](CCCNC(=N)N)C(=O)N[C@@H](CCC(N)=O)C(=O)N[C@@H](CO)C(=O)N[C@@H](COP(=O)(O)O)C(=O)N[C@@H](C)C(=O)N[C@@H](CC(N)=O)C(=O)N[C@@H](CC(C)C)C(=O)N[C@@H](CC(C)C)C(=O)N[C@@H](CS)C(=O)N[C@@H](C)C(=O)O)[C@@H](C)O)[C@@H](C)OP(=O)(O)O)C(C)C [GR_F623A] (H-KTIVPA[pT]LPQLTPGGGGGRSYRQS[pS]ANLLCA-OH)
[1]
  Kd: 50.1 nM

## CC(C)C[C@H](NC(=O)[C@H](CC(N)=O)NC(=O)[C@H](C)NC(=O)[C@H](COP(=O)(O)O)NC(=O)[C@H](CO)NC(=O)[C@H](CCC(N)=O)NC(=O)[C@H](CCCNC(=N)N)NC(=O)[C@H](Cc1ccc(O)cc1)NC(=O)[C@H](CO)NC(=O)[C@H](CCCNC(=N)N)NC(=O)CNC(=O)CNC(=O)CNC(=O)CNC(=O)CNC(=O)[C@@H]1CCCN1C(=O)[C@@H](NC(=O)[C@H](CC(C)C)NC(=O)[C@H](CCC(N)=O)NC(=O)[C@@H]1CCCN1C(=O)[C@H](CC(C)C)NC(=O)[C@@H](NC(=O)[C@H](C)NC(=O)[C@@H]1CCCN1C(=O)[C@@H](NC(=O)[C@H](C)NC(=O)[C@@H](NC(=O)[C@@H](N)CCCCN)[C@@H](C)O)C(C)C)[C@@H](C)OP(=O)(O)O)[C@@H](C)O)C(=O)N[C@@H](CC(C)C)C(=O)N[C@@H](CS)C(=O)N[C@@H](Cc1ccccc1)C(=O)O [GR_I520A] (H-KTAVPA[pT]LPQLTPGGGGGRSYRQS[pS]ANLLCF-OH)
[1]
  Kd: 50.1 nM

## CC[C@H](C)[C@H](NC(=O)[C@@H](NC(=O)[C@H](C)N)[C@@H](C)O)C(=O)N[C@H](C(=O)N1CCC[C@H]1C(=O)N[C@@H](C)C(=O)N[C@H](C(=O)N[C@@H](CC(C)C)C(=O)N1CCC[C@H]1C(=O)N[C@@H](CCC(N)=O)C(=O)N[C@@H](CC(C)C)C(=O)N[C@H](C(=O)N1CCC[C@H]1C(=O)NCC(=O)NCC(=O)NCC(=O)NCC(=O)NCC(=O)N[C@@H](CCCNC(=N)N)C(=O)N[C@@H](CO)C(=O)N[C@@H](Cc1ccc(O)cc1)C(=O)N[C@@H](CCCNC(=N)N)C(=O)N[C@@H](CCC(N)=O)C(=O)N[C@@H](CO)C(=O)N[C@@H](COP(=O)(O)O)C(=O)N[C@@H](C)C(=O)N[C@@H](CC(N)=O)C(=O)N[C@@H](CC(C)C)C(=O)N[C@@H](CC(C)C)C(=O)N[C@@H](CS)C(=O)N[C@@H](Cc1ccccc1)C(=O)O)[C@@H](C)O)[C@@H](C)OP(=O)(O)O)C(C)C [GR_K518A] (H-ATIVPA[pT]LPQLTPGGGGGRSYRQS[pS]ANLLCF-OH)
FP, doubly phosphorylated 31-mer peptides, triplicates, read-out: Kd with 14-3-3ζ (values in nM)
  Kd: 110 nM

## CC[C@H](C)[C@H](NC(=O)[C@@H](NC(=O)[C@@H](N)CCCCN)[C@@H](C)O)C(=O)N[C@H](C(=O)N1CCC[C@H]1C(=O)N[C@@H](C)C(=O)N[C@H](C(=O)N[C@@H](C)C(=O)N1CCC[C@H]1C(=O)N[C@@H](CCC(N)=O)C(=O)N[C@@H](CC(C)C)C(=O)N[C@H](C(=O)N1CCC[C@H]1C(=O)NCC(=O)NCC(=O)NCC(=O)NCC(=O)NCC(=O)N[C@@H](CCCNC(=N)N)C(=O)N[C@@H](CO)C(=O)N[C@@H](Cc1ccc(O)cc1)C(=O)N[C@@H](CCCNC(=N)N)C(=O)N[C@@H](CCC(N)=O)C(=O)N[C@@H](CO)C(=O)N[C@@H](COP(=O)(O)O)C(=O)N[C@@H](C)C(=O)N[C@@H](CC(N)=O)C(=O)N[C@@H](CC(C)C)C(=O)N[C@@H](CC(C)C)C(=O)N[C@@H](CS)C(=O)N[C@@H](Cc1ccccc1)C(=O)O)[C@@H](C)O)[C@@H](C)OP(=O)(O)O)C(C)C [GR_L525A] (H-KTIVPA[pT]APQLTPGGGGGRSYRQS[pS]ANLLCF-OH)
[1]
  Kd: 63.1 nM

## CC[C@H](C)[C@H](NC(=O)[C@@H](NC(=O)[C@@H](N)CCCCN)[C@@H](C)O)C(=O)N[C@H](C(=O)N1CCC[C@H]1C(=O)N[C@@H](C)C(=O)N[C@H](C(=O)N[C@@H](CC(C)C)C(=O)N1CCC[C@H]1C(=O)N[C@@H](CCC(N)=O)C(=O)N[C@@H](C)C(=O)N[C@H](C(=O)N1CCC[C@H]1C(=O)NCC(=O)NCC(=O)NCC(=O)NCC(=O)NCC(=O)N[C@@H](CCCNC(=N)N)C(=O)N[C@@H](CO)C(=O)N[C@@H](Cc1ccc(O)cc1)C(=O)N[C@@H](CCCNC(=N)N)C(=O)N[C@@H](CCC(N)=O)C(=O)N[C@@H](CO)C(=O)N[C@@H](COP(=O)(O)O)C(=O)N[C@@H](C)C(=O)N[C@@H](CC(N)=O)C(=O)N[C@@H](CC(C)C)C(=O)N[C@@H](CC(C)C)C(=O)N[C@@H](CS)C(=O)N[C@@H](Cc1ccccc1)C(=O)O)[C@@H](C)O)[C@@H](C)OP(=O)(O)O)C(C)C [GR_L528A] (H-KTIVPA[pT]LPQATPGGGGGRSYRQS[pS]ANLLCF-OH)
[1]
  Kd: 50.1 nM

## CC[C@H](C)[C@H](NC(=O)[C@@H](NC(=O)[C@@H](N)CCCCN)[C@@H](C)O)C(=O)N[C@H](C(=O)N1CCC[C@H]1C(=O)N[C@@H](C)C(=O)N[C@H](C(=O)N[C@@H](CC(C)C)C(=O)N1CCC[C@H]1C(=O)N[C@@H](CCC(N)=O)C(=O)N[C@@H](CC(C)C)C(=O)N[C@H](C(=O)N1CCC[C@H]1C(=O)NCC(=O)NCC(=O)NCC(=O)NCC(=O)NCC(=O)N[C@@H](CCCNC(=N)N)C(=O)N[C@@H](CO)C(=O)N[C@@H](Cc1ccc(O)cc1)C(=O)N[C@@H](CCCNC(=N)N)C(=O)N[C@@H](CCC(N)=O)C(=O)N[C@@H](CO)C(=O)N[C@@H](COP(=O)(O)O)C(=O)N[C@@H](C)C(=O)N[C@@H](CC(N)=O)C(=O)N[C@@H](C)C(=O)N[C@@H](CC(C)C)C(=O)N[C@@H](CS)C(=O)N[C@@H](Cc1ccccc1)C(=O)O)[C@@H](C)O)[C@@H](C)OP(=O)(O)O)C(C)C [GR_L620A] (H-KTIVPA[pT]LPQLTPGGGGGRSYRQS[pS]ANALCF-OH)
[1]
  Kd: 50.1 nM

## CC[C@H](C)[C@H](NC(=O)[C@@H](NC(=O)[C@@H](N)CCCCN)[C@@H](C)O)C(=O)N[C@H](C(=O)N1CCC[C@H]1C(=O)N[C@@H](C)C(=O)N[C@H](C(=O)N[C@@H](CC(C)C)C(=O)N1CCC[C@H]1C(=O)N[C@@H](CCC(N)=O)C(=O)N[C@@H](CC(C)C)C(=O)N[C@H](C(=O)N1CCC[C@H]1C(=O)NCC(=O)NCC(=O)NCC(=O)NCC(=O)NCC(=O)N[C@@H](CCCNC(=N)N)C(=O)N[C@@H](CO)C(=O)N[C@@H](Cc1ccc(O)cc1)C(=O)N[C@@H](CCCNC(=N)N)C(=O)N[C@@H](CCC(N)=O)C(=O)N[C@@H](CO)C(=O)N[C@@H](COP(=O)(O)O)C(=O)N[C@@H](C)C(=O)N[C@@H](CC(N)=O)C(=O)N[C@@H](CC(C)C)C(=O)N[C@@H](C)C(=O)N[C@@H](CS)C(=O)N[C@@H](Cc1ccccc1)C(=O)O)[C@@H](C)O)[C@@H](C)OP(=O)(O)O)C(C)C [GR_L621A] (H-KTIVPA[pT]LPQLTPGGGGGRSYRQS[pS]ANLACF-OH)
[1]
  Kd: 39.8 nM

## CC[C@H](C)[C@H](NC(=O)[C@@H](NC(=O)[C@@H](N)CCCCN)[C@@H](C)O)C(=O)N[C@H](C(=O)N1CCC[C@H]1C(=O)N[C@@H](C)C(=O)N[C@H](C(=O)N[C@@H](CC(C)C)C(=O)N1CCC[C@H]1C(=O)N[C@@H](CCC(N)=O)C(=O)N[C@@H](CC(C)C)C(=O)N[C@H](C(=O)N1CCC[C@H]1C(=O)NCC(=O)NCC(=O)NCC(=O)NCC(=O)NCC(=O)N[C@@H](CCCNC(=N)N)C(=O)N[C@@H](CO)C(=O)N[C@@H](Cc1ccc(O)cc1)C(=O)N[C@@H](CCCNC(=N)N)C(=O)N[C@@H](CCC(N)=O)C(=O)N[C@@H](CO)C(=O)N[C@@H](COP(=O)(O)O)C(=O)N[C@@H](C)C(=O)N[C@@H](C)C(=O)N[C@@H](CC(C)C)C(=O)N[C@@H](CC(C)C)C(=O)N[C@@H](CS)C(=O)N[C@@H](Cc1ccccc1)C(=O)O)[C@@H](C)O)[C@@H](C)OP(=O)(O)O)C(C)C [GR_N619A] (H-KTIVPA[pT]LPQLTPGGGGGRSYRQS[pS]AALLCF-OH)
[1]
  Kd: 39.8 nM
